According to US12151998B2, “Solid drug form of N-(2,6-bis(1-methylethyl)phenyl)-N′-((1-(4-(dimethylamino)phenyl)cyclopentyl)methyl)urea hydrochloride and compositions, methods and kits related thereto” (The Regents of the University of Michigan, priority 2014, dated 2024):
Where a name gives a salt, the structure may show the parent alone.

Columns and labels:
ACC = conditions: cited from earlier work
[1] = Enhanced exposure with stomach acidification: pharmacokinetics of ATR-101 tablets in dogs; format: in vivo; conditions: male beagle dogs, single 125 mg ATR-101 tablet oral; pretreated with pentagastrin compared to pretreatment with famotidine
Description: To examine pharmacokinetics and exposures of ATR-101 tablets prepared according to Example 6, an in vivo study was carried out in dogs following pretreatment with pentagastrin to decrease stomach pH, or famotidine to increase the stomach pH.
The same cohort of dogs was used in both treatments and included a 5-day wash-out between the treatment arms. Male beagle dogs (approximately 6.5-12.5 kg, n=6) were fasted overnight prior to dosing and through the first 4 hours of blood sample collection. For the pentagastrin arm, the animals were pretreated with a single intramuscular injection of pentagastrin (0.06 mg/mL at a dose level of […] and a dose volume of 0.01 mL/kg) 16 to 22 minutes prior to test article administration. For the famotidine arm, animals were pretreated with a single oral tablet dose of 20 mg famotidine at 59 to 60 minutes prior to tablet administration.
Following tablet administration, each animal received 30 mL of tap water via oral gavage. Animals were treated with a single 125 mg ATR-101 tablet by oral administration. The tablet was made as described in Example 6 above, and contained the ingredients listed in Table 6, but with the amount of ATR-101 at 125 mg (as free base) rather than 500 mg and the remaining ingredients reduced by the same weight percentage. […] ATR-101 concentrations were determined by LC/MSMS.

Clc1ccc(C(c2ccccc2Cl)C(Cl)Cl)cc1 (stereo not drawn) [mitotane]
delay of disease progression (average) (ACC; ACC patients that derive a therapeutic benefit): five
patients with increased progression-free survival (ACC; ACC patients, fraction of patients): one-quarter to one-third

CC(C)c1cccc(C(C)C)c1NC(=O)NCC1(c2ccc(N(C)C)cc2)CCCC1 [ATR-101, N-(2,6-bis(1-methylethyl)phenyl)-N′-((1-(4-(dimethylamino)phenyl)cyclopentyl)methyl)urea hydrochloride]
increase in systemic exposure [1]: 57%
